In paper PMC4867616, “Imaging of Cerebral Amyloid Angiopathy with Bivalent ^99mTc-Hydroxamamide Complexes” (Scientific Reports, 2016):

Tests used:
[1] = Ex vivo biodistribution in normal mice; design: species or system ddY mice; conditions: i.v., mean (SD), 5 animals
Description: To evaluate brain uptake of ^99mTc-Ham complexes, biodistribution experiments of ^99mTc-Ham complexes were performed in normal mice. We selected ^18F-florbetapir as a control and compared the results of ^99mTc-Ham complexes with that of ^18F-florbetapir (Fig. 2). The brain uptake of [^99mTc]SB1A, [^99mTc]SB2A, [^99mTc]BT1B, and [^99mTc]BT2B at 2 min postinjection was 0.37, 0.28, 0.36, and 0.37% injected dose (ID)/g, respectively. The radioactivity in the brains remained low until 60 min postinjection. The results of the biodistribution study are shown in Table S1 in Supplementary information.
A saline solution (100 μL) of ^99mTc-Ham complexes (20 kBq) containing EtOH (10 μL) was injected directly into the tail vein of ddY mice (male, 5 weeks old). The mice were sacrificed at 2, 10, 30, and 60 min postinjection. The organs of interest were removed and weighed, and radioactivity was measured using a γ counter (PerkinElmer). The %ID/g of samples was calculated by comparing the sample counts with the count of the diluted initial dose.
*Corresponding author: M. Ono. Address: 46-29 Yoshida Shimoadachi-cho, Sakyo-ku, Kyoto 606-8501, Japan, Phone: +81-75-753-4608, Fax: +81-75-753-4568, E-mail: ono@pharm.kyoto-u.ac.jp. Ex vivo biodistribution in normal mice. A saline solution (100 μL) of ^99mTc-Ham complexes (20 kBq) containing EtOH (10 μL) was injected directly into the tail vein of ddY mice (male, 5 weeks old). The mice were sacrificed at 2, 10, 30, and 60 min postinjection. The organs of interest were removed and weighed, and radioactivity was measured using a γ counter (Wallac 1470 Wizard; PerkinElmer, Massachusetts, USA). Percentage dose per organ was calculated by comparing the tissue counts to suitably diluted aliquots of the injected material. The %dose/g of samples was calculated by comparing the sample counts with the count of the diluted initial dose.

[2] = target: T1, Aβ depositions in Tg2576 mouse brain (Homo sapiens, UniProt P05067); assay: Ex vivo autoradiography using Tg2576 and wild-type mice; assay type: in vivo
T1 construct: Aβ(1–40) aggregates, the predominant amyloid found in CAA; tissue Taconic Farms, Inc. (New York, USA); host or cells: brain of living female Tg2576 transgenic mice
Description: Tg2576 transgenic mice (female, 29 months old) and wild-type mice (female, 29 months old) were used as the AD model and age-matched control, respectively. A saline solution (150 μL) of [^99mTc]SB2A or [^99mTc]BT2B (18.5 MBq) containing EtOH (30 μL) was injected through the tail vein. The mice were sacrificed at 30 min postinjection. The brains were immediately removed, embedded in carboxymethylcellulose solution and then frozen in a dry ice/hexane bath. Sections of 30 μm were cut and exposed to a BAS imaging plate (Fuji Film) overnight. Autoradiographic images were obtained using a BAS5000 scanner system (Fuji Film). After autoradiographic examination, the same sections were stained by thioflavin-S to confirm the presence of Aβ depositions. For thioflavin-S fluorescent staining, the sections were immersed in a 100 μM thioflavin-S solution containing 50% EtOH for 3 min, washed in 50% EtOH for 1 min two times, and examined using a microscope (Keyence Corp.) equipped with a GFP-BP filter set. Additionally, the same sections were immunostained by anti-CD31 antibody to confirm the presence of endothelial cells. For immunohistochemical staining of CD31, the sections were incubated in PBST for 5 min three times, and incubated with anti-CD31 primary antibody (SZ31; Abcam, Cambridgeshire, U.K., dilution 1:50) at room temperature overnight. After three 5-min incubations in PBST, anti-rabbit secondary antibody (Dako, California, USA) incubation was carried out at room temperature for 3 h. Subsequently, the sections were incubated in PBST for 5 min three times, and incubated with diaminobenzidine (Merck) as a chromogen for 5 min. After washing with water, the sections were observed under a microscope (Keyence Corp.).
Ex vivo autoradiography using Tg2576 and wild-type mice. Tg2576 transgenic mice (female, 29 months old) and wild-type mice (female, 29 months old) were used as the Alzheimer’s model and age-matched control, respectively. A saline solution (150 µL) of [^99mTc]BT2B (18.5 MBq) containing ethanol (30 µL) was injected through the tail vein. […]

T1 sequence (P05067 672-711 limits assumed): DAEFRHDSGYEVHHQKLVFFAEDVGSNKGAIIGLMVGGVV

For `CN(C)c1ccc(/C=C/c2ccc(C3=N[O][99Tc-]4(=[O])([NH]3)[NH2+]C(c3ccc(/C=C/c5ccc(N(C)C)cc5)cc3)=N[O]4)cc2)cc1` (single isomer, unassigned) [[^99mTc]SB2A], the “Biodistribution of radioactivity, Heart” value ([1]; 2 min after injection) was 12.64 (1.59) % injected dose per gram, the “Biodistribution of radioactivity, Intestine” value (“Biodistribution … Intestine” below) ([1]; 2 min after injection) was 1.52 (0.25) % injected dose per gram and the “Biodistribution of radioactivity, Kidney” value ([1]; 2 min after injection) was 5.03 (0.52) % injected dose per gram. For the same compound, the “Biodistribution of radioactivity, Liver” value ([1]; 2 min after injection) was 25.52 (1.67) % injected dose per gram, the “Biodistribution of radioactivity, Lung” value ([1]; 2 min after injection) was 14.35 (1.86) % injected dose per gram and the “Biodistribution of radioactivity, Pancreas” value (from here on “Biodistribution … Pancreas”) ([1]; 2 min after injection) was 3.35 (0.60) % injected dose per gram. For the same compound, the “Biodistribution of radioactivity, Spleen” value ([1]; 2 min after injection) was 10.76 (0.96) % injected dose per gram, the “Biodistribution of radioactivity, Stomach” value (from here on “Biodistribution … Stomach”) ([1]; 2 min after injection) was 3.15 (0.56) % injected dose per organ and the “Biodistribution of radioactivity, Heart” value ([1]; 10 min after injection) was 6.57 (0.92) % injected dose per gram. For the same compound, the “Biodistribution … Intestine” value ([1]; 10 min after injection) was 1.71 (0.11) % injected dose per gram, the “Biodistribution of radioactivity, Kidney” value ([1]; 10 min after injection) was 3.57 (0.41) % injected dose per gram and the “Biodistribution of radioactivity, Liver” value ([1]; 10 min after injection) was 29.35 (2.85) % injected dose per gram. For the same compound, the “Biodistribution of radioactivity, Lung” value ([1]; 10 min after injection) was 7.79 (0.50) % injected dose per gram, the “Biodistribution … Pancreas” value ([1]; 10 min after injection) was 2.12 (0.08) % injected dose per gram and the “Biodistribution of radioactivity, Spleen” value ([1]; 10 min after injection) was 11.24 (2.26) % injected dose per gram. The “Biodistribution … Stomach” value ([1]; 10 min after injection) was 8.78 (1.32) % injected dose per organ, the “Biodistribution of radioactivity, Heart” value ([1]; 30 min after injection) was 8.58 (1.32) % injected dose per gram and the “Biodistribution … Intestine” value ([1]; 30 min after injection) was 2.64 (0.36) % injected dose per gram. For the same compound, the “Biodistribution of radioactivity, Kidney” value ([1]; 30 min after injection) was 3.61 (0.29) % injected dose per gram, the “Biodistribution of radioactivity, Liver” value ([1]; 30 min after injection) was 27.04 (3.90) % injected dose per gram and the “Biodistribution of radioactivity, Lung” value ([1]; 30 min after injection) was 7.26 (1.02) % injected dose per gram. The “Biodistribution … Pancreas” value ([1]; 30 min after injection) was 2.06 (0.11) % injected dose per gram, the “Biodistribution of radioactivity, Spleen” value ([1]; 30 min after injection) was 8.91 (3.26) % injected dose per gram and the “Biodistribution … Stomach” value ([1]; 30 min after injection) was 16.13 (2.33) % injected dose per organ. The “Biodistribution of radioactivity, Heart” value ([1]; 60 min after injection) was 8.27 (1.19) % injected dose per gram, the “Biodistribution … Intestine” value ([1]; 60 min after injection) was 4.05 (0.55) % injected dose per gram and the “Biodistribution of radioactivity, Kidney” value ([1]; 60 min after injection) was 3.39 (0.20) % injected dose per gram. The “Biodistribution of radioactivity, Liver” value ([1]; 60 min after injection) was 24.95 (3.38) % injected dose per gram, the “Biodistribution of radioactivity, Lung” value ([1]; 60 min after injection) was 6.48 (0.49) % injected dose per gram and the “Biodistribution … Pancreas” value ([1]; 60 min after injection) was 1.83 (0.07) % injected dose per gram. The “Biodistribution of radioactivity, Spleen” value ([1]; 60 min after injection) was 7.58 (2.60) % injected dose per gram, the “Biodistribution … Stomach” value ([1]; 60 min after injection) was 14.72 (4.51) % injected dose per organ and the “Ex vivo autoradiography labeling of Aβ depositions in transgenic mice” value ([2]; Tg2576 mice (29 months old) vs wild-type, i.v., brains removed at 30 min postinjection) was “intensive labeling of Aβ depositions”. The “Selectivity for vascular versus parenchymal amyloid aggregates (ex vivo autoradiography, thioflavin-S and anti-CD31 staining)” value ([2]; Tg2576 mice, 30 min postinjection) was “selectively bound to amyloid aggregates deposited along vessels but not within parenchyma”.
